Laboratory results from PubChem BioAssay (NCI).
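Each compound was tested at five concentrations against cells in 96-well plates for 48 hours. The concentration for full growth arrest is given as TGI.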

What was measured:
Assay in all cases: DTP human tumour cell line panel, 48 h
EKVX NSCLC = system: EKVX NSCLC
UACC-62 melanoma = system: UACC-62 melanoma
A549 NSCLC = system: A549 NSCLC
SN12C renal = system: SN12C renal
HOP-92 NSCLC = system: HOP-92 NSCLC
NCI-H522 lung = system: NCI-H522 lung
SF-539 CNS = system: SF-539 CNS
SR leukemia = system: SR leukemia
HCT-116 colon = system: HCT-116 colon
MDA-MB-435 = system: MDA-MB-435
MDA-MB-231 breast = system: MDA-MB-231 breast
ACHN renal = system: ACHN renal
HL-60(TB) leukemia = system: HL-60(TB) leukemia
SNB-75 CNS = system: SNB-75 CNS
RXF 393 renal = system: RXF 393 renal
HOP-62 NSCLC = system: HOP-62 NSCLC
SF-295 CNS = system: SF-295 CNS
SK-MEL-5 melanoma = system: SK-MEL-5 melanoma
DU-145 prostate = system: DU-145 prostate
IGROV1 ovarian = system: IGROV1 ovarian
T-47D breast = system: T-47D breast
U251 CNS = system: U251 CNS
HCC-2998 colon = system: HCC-2998 colon
K-562 leukemia = system: K-562 leukemia
NCI-H460 lung = system: NCI-H460 lung
NCI-H23 lung = system: NCI-H23 lung
SF-268 CNS = system: SF-268 CNS
MALME-3M melanoma = system: MALME-3M melanoma
RPMI-8226 leukemia = system: RPMI-8226 leukemia
COLO 205 colon = system: COLO 205 colon
OVCAR-5 ovarian = system: OVCAR-5 ovarian
UO-31 renal = system: UO-31 renal
OVCAR-8 ovarian = system: OVCAR-8 ovarian
PC-3 prostate = system: PC-3 prostate
LOX IMVI melanoma = system: LOX IMVI melanoma
786-0 renal = system: 786-0 renal
HS 578T breast = system: HS 578T breast
HT29 colon = system: HT29 colon
SNB-19 CNS = system: SNB-19 CNS
UACC-257 melanoma = system: UACC-257 melanoma
KM12 colon = system: KM12 colon
MDA-N = system: MDA-N
SK-MEL-2 melanoma = system: SK-MEL-2 melanoma
MOLT-4 leukemia = system: MOLT-4 leukemia
TK-10 renal = system: TK-10 renal
SK-MEL-28 melanoma = system: SK-MEL-28 melanoma
SW-620 colon = system: SW-620 colon
A498 renal = system: A498 renal
OVCAR-4 ovarian = system: OVCAR-4 ovarian
CCRF-CEM leukemia = system: CCRF-CEM leukemia
CAKI-1 renal = system: CAKI-1 renal
NCI-H226 lung = system: NCI-H226 lung
NCI/ADR-RES ovarian = system: NCI/ADR-RES ovarian
HCT-15 colon = system: HCT-15 colon
SK-OV-3 ovarian = system: SK-OV-3 ovarian
M14 melanoma = system: M14 melanoma
MCF7 breast = system: MCF7 breast

## S=C1C(=Nc2ccccc2)N(C2CCCCC2)C(=NC2CCCCC2)N1c1ccccc1
EKVX NSCLC
  TGI: > 100 µM
UACC-62 melanoma
  TGI: > 100 µM
A549 NSCLC
  TGI: > 100 µM
SN12C renal
  TGI: > 100 µM
HOP-92 NSCLC
  TGI: > 100 µM
NCI-H522 lung
  TGI: 71.8 µM
SF-539 CNS
  TGI: > 100 µM
SR leukemia
  TGI: > 100 µM
HCT-116 colon
  TGI: > 100 µM
MDA-MB-435
  TGI: > 100 µM
MDA-MB-231 breast
  TGI: > 100 µM
ACHN renal
  TGI: > 100 µM
HL-60(TB) leukemia
  TGI: > 100 µM
SNB-75 CNS
  TGI: > 100 µM
RXF 393 renal
  TGI: > 100 µM
HOP-62 NSCLC
  TGI: > 100 µM
SF-295 CNS
  TGI: > 100 µM
SK-MEL-5 melanoma
  TGI: > 100 µM
DU-145 prostate
  TGI: > 100 µM
IGROV1 ovarian
  TGI: > 100 µM
T-47D breast
  TGI: > 100 µM
U251 CNS
  TGI: > 100 µM
HCC-2998 colon
  TGI: > 100 µM
K-562 leukemia
  TGI: > 100 µM
NCI-H460 lung
  TGI: > 100 µM
NCI-H23 lung
  TGI: > 100 µM
SF-268 CNS
  TGI: > 100 µM
MALME-3M melanoma
  TGI: > 100 µM
RPMI-8226 leukemia
  TGI: > 100 µM
COLO 205 colon
  TGI: > 100 µM
OVCAR-5 ovarian
  TGI: > 100 µM
UO-31 renal
  TGI: > 100 µM
OVCAR-8 ovarian
  TGI: > 100 µM
PC-3 prostate
  TGI: > 100 µM
LOX IMVI melanoma
  TGI: > 100 µM
786-0 renal
  TGI: > 100 µM
HS 578T breast
  TGI: > 100 µM
HT29 colon
  TGI: > 100 µM
SNB-19 CNS
  TGI: > 100 µM
UACC-257 melanoma
  TGI: > 100 µM
KM12 colon
  TGI: > 100 µM
MDA-N
  TGI: > 100 µM
SK-MEL-2 melanoma
  TGI: > 100 µM
MOLT-4 leukemia
  TGI: > 100 µM
TK-10 renal
  TGI: > 100 µM
SK-MEL-28 melanoma
  TGI: > 100 µM
SW-620 colon
  TGI: > 100 µM
A498 renal
  TGI: > 100 µM
OVCAR-4 ovarian
  TGI: > 100 µM
CCRF-CEM leukemia
  TGI: > 100 µM
CAKI-1 renal
  TGI: > 100 µM
NCI-H226 lung
  TGI: > 100 µM
NCI/ADR-RES ovarian
  TGI: > 100 µM
HCT-15 colon
  TGI: > 100 µM
SK-OV-3 ovarian
  TGI: > 100 µM

## O=C(CC(C(=O)c1ccc(F)cc1)c1ccsc1)c1cccs1 (stereo not drawn)
EKVX NSCLC
  TGI: > 100 µM
UACC-62 melanoma
  TGI: > 100 µM
A549 NSCLC
  TGI: > 100 µM
SN12C renal
  TGI: > 100 µM
SF-539 CNS
  TGI: > 100 µM
SR leukemia
  TGI: > 100 µM
HCT-116 colon
  TGI: > 100 µM
MDA-MB-435
  TGI: > 100 µM
MDA-MB-231 breast
  TGI: > 100 µM
ACHN renal
  TGI: > 100 µM
HL-60(TB) leukemia
  TGI: > 100 µM
SNB-75 CNS
  TGI: > 100 µM
HOP-62 NSCLC
  TGI: > 100 µM
SF-295 CNS
  TGI: > 100 µM
SK-MEL-5 melanoma
  TGI: > 100 µM
DU-145 prostate
  TGI: > 100 µM
IGROV1 ovarian
  TGI: > 100 µM
T-47D breast
  TGI: > 100 µM
M14 melanoma
  TGI: > 100 µM
U251 CNS
  TGI: > 100 µM
HCC-2998 colon
  TGI: > 100 µM
K-562 leukemia
  TGI: > 100 µM
NCI-H460 lung
  TGI: > 100 µM
MCF7 breast
  TGI: > 100 µM
NCI-H23 lung
  TGI: > 100 µM
SF-268 CNS
  TGI: > 100 µM
MALME-3M melanoma
  TGI: > 100 µM
RPMI-8226 leukemia
  TGI: > 100 µM
COLO 205 colon
  TGI: > 100 µM
OVCAR-5 ovarian
  TGI: > 100 µM
UO-31 renal
  TGI: > 100 µM
OVCAR-8 ovarian
  TGI: > 100 µM
PC-3 prostate
  TGI: > 100 µM
786-0 renal
  TGI: > 100 µM
HS 578T breast
  TGI: > 100 µM
HT29 colon
  TGI: > 100 µM
SNB-19 CNS
  TGI: > 100 µM
UACC-257 melanoma
  TGI: > 100 µM
KM12 colon
  TGI: > 100 µM
MDA-N
  TGI: > 100 µM
SK-MEL-2 melanoma
  TGI: > 100 µM
MOLT-4 leukemia
  TGI: 89.7 µM
TK-10 renal
  TGI: > 100 µM
SK-MEL-28 melanoma
  TGI: > 100 µM
SW-620 colon
  TGI: > 100 µM
A498 renal
  TGI: > 100 µM
OVCAR-4 ovarian
  TGI: > 100 µM
CCRF-CEM leukemia
  TGI: > 100 µM
CAKI-1 renal
  TGI: > 100 µM
NCI-H226 lung
  TGI: > 100 µM
NCI/ADR-RES ovarian
  TGI: > 100 µM
HCT-15 colon
  TGI: > 100 µM
SK-OV-3 ovarian
  TGI: > 100 µM
